The source of these data is US20230027929A1, “MrgprX2 Antagonists and Uses Thereof” (Dermira, Inc., priority 2019, published 2023).

In the assay the target is T1, hMrgpMRGPRX2 (Homo sapiens, UniProt Q96LB1).
T1 construct: expressed in transfected cells
T1 sequence (Q96LB1 1-330): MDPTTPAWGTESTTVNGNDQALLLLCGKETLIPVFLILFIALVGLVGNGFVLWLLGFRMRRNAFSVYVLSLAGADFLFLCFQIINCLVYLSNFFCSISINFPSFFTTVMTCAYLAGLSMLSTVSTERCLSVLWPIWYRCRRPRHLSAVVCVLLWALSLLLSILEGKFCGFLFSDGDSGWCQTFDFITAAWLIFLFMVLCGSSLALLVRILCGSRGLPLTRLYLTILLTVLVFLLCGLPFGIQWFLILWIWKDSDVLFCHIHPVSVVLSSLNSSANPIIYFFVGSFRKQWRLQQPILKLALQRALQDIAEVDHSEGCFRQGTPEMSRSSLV
Kind of assay: FLIPR intracellular calcium mobilization, antagonist activity in recombinant hMrgpMRGPRX2 expressing cells. In kind it is cell-based. Conditions: read-out: Human MrgprX2 Antagonist pIC50 (converted). The text has this:
Potent and selective hMrgpMRGPRX2 compounds have been generated from compounds identified during a high throughput screening (HTS) campaign and followed up with cycles of structure activity based medicinal chemistry efforts. These compounds were characterized in recombinant hMrgpMRGPRX2 expressing cells for their antagonist activity and the potency was confirmed in the human mast cell line LAD-2, where the target is endogenously expressed. The assays used to determine potencies are functional read-out looking at intracellular calcium mobilization using the FLIPR™ technology. In these FLIPR assays, we test the identified compounds using recombinant cellular systems expressing mouse MrgprB2, mouse MrgprA1, gerbil MrgpMRGPRX2 orthologue, Chinese hamster MrgpMRGPRX2 orthologue and cynomolgus monkey MrgpMRGPRX2 orthologue, respectively for orthologue activity.
For the compound `C[C@@H]1C[C@H]1C(=O)Nc1ccc(Oc2ccc(F)c(F)c2)cn1` (racemic) [Compound E048.1], the IC50 is 79.4 nM. In the case of `CC1(C)C[C@H]1C(=O)Nc1ccc(Oc2ccc(F)c(F)c2)cn1` (single isomer, unassigned) [Compound E078], the IC50 was 7.94 nM. The same measure for `CC1(C)CC1C(=O)Nc1cnc(-c2cc(F)cc(F)c2)cn1` (single isomer, unassigned) [Compound E231, N-[5-(3,5-difluorophenyl)pyrazin-2-yl]-2,2-dimethyl-cyclopropanecarboxamide]: 102 nM; for `CCN(C[C@@H](O)C(F)(F)F)C(=O)Nc1ccc(Oc2ccc(F)cc2F)cn1` (single isomer, unassigned) [Compound E267]: 28.2 nM.

Take `CC(C)(C#N)C(=O)Nc1ccc(Oc2cccc(F)c2)cn1` [Compound E001, 2-cyano-N-[5-(3-fluorophenoxy)-2-pyridyl]-2-methyl-propanamide]: the IC50 was 398 nM. The result for `CC(C)C(=O)Nc1ccc(Oc2ccccc2)cn1` [Compound E002] reads 501 nM. Consider `CC(C)C(=O)Nc1ccc(Oc2ccc(F)cc2)cn1` [Compound E003], for which the IC50 is 316 nM. The same measure for `CC(C)C(=O)Nc1ccc(Oc2cccc(F)c2)cn1` [Compound E004]: 63.1 nM. The result for `CC(C)C(=O)Nc1ccc(Oc2ccccc2F)cn1` [Compound E005] reads 79.4 nM; that for `CC1(C(=O)Nc2ccc(Oc3cccc(F)c3)cn2)CCOCC1` [Compound E006], 3160 nM. For the compound `CC1(C(=O)Nc2ccc(Oc3ccccc3F)cn2)CCOCC1` [Compound E007], the IC50 was 2510 nM. The result for `CC(C)C(=O)Nc1ccc(Oc2cc(F)cc(F)c2)cn1` [Compound E008] reads 6.31 nM; that for `CC(C)C(=O)Nc1ccc(Oc2cccc(F)c2F)cn1` [Compound E009], 79.4 nM; that for `CC(C)C(=O)Nc1ccc(Oc2ccc(F)c(F)c2)cn1` [Compound E010], 39.8 nM.

With `CC1(C(=O)Nc2ccc(Oc3cccc(F)c3)cn2)CCOC1` (stereo not drawn) [Compound E011], the IC50 was 6310 nM. The result for `O=C(Nc1ccc(Oc2cccc(F)c2)cn1)C1(C(F)(F)F)CC1` [Compound E012] reads 398 nM.

`CC(O)(C(=O)Nc1ccc(Oc2cccc(F)c2)cn1)C(F)(F)F` (stereo not drawn) [Compound E013]: the IC50 was 794 nM.

In the case of `CC(C)(CO)C(=O)Nc1ccc(Oc2cccc(F)c2)cn1` [Compound E014], the IC50 is 3980 nM. The same measure for `CC1(C(=O)Nc2ccc(Oc3cccc(Cl)c3)cn2)CCOCC1` [Compound E015]: 25.1 nM. The result for `CC(C)C(=O)Nc1ccc(Oc2cccc(Cl)c2)cn1` [Compound E016] reads 25.1 nM; that for `O=C(Nc1ccc(Oc2cc(F)cc(F)c2)cn1)C1CC1` [Compound E017], 79.4 nM; that for `CC(C)C(=O)Nc1ccc(Oc2cccc(C#N)c2)cn1` [Compound E018], 6310 nM.

With `CC(C)C(=O)Nc1ccc(Oc2ccc(F)c(C#N)c2)cn1` [Compound E019], the IC50 was 7940 nM.

Consider `N#Cc1cc(F)cc(Oc2ccc(NC(=O)C3CC3)nc2)c1` [Compound E020], for which the IC50 is 10000 nM. The same measure for `CC(C)C(=O)Nc1ccc(Oc2cc(F)cc(C#N)c2)cn1` [Compound E021]: 1580 nM. As to `CC(C)C(=O)Nc1ccc(Oc2ccnc(F)c2)cn1` [Compound E022], the IC50 was 10000 nM.

Consider `N#CC1(C(=O)Nc2ccc(Oc3cc(F)cc(F)c3)cn2)CC1` [Compound E023], for which the IC50 is 3160 nM. In the case of `O=C(Nc1ccc(Oc2ccc(F)c(F)c2)cn1)C1CCOCC1` [Compound E024], the IC50 was 2000 nM.

On to `CC1(C)C(C(=O)Nc2ccc(Oc3ccc(F)c(F)c3)cn2)C1(C)C` [Compound E025], for which the IC50 is 2.51 nM. With `CC(C)(C#N)C(=O)Nc1ccc(Oc2ccc(F)c(F)c2)cn1` [Compound E026], the IC50 was 2000 nM. For `CC1(C(=O)Nc2ccc(Oc3ccc(F)c(F)c3)cn2)CCOCC1` [Compound E027], the IC50 is 3160 nM. The result for `O=C(Nc1ccc(Oc2ccc(F)c(F)c2)cn1)C1CC1(F)F` (stereo not drawn) [Compound E028] reads 200 nM. The result for `CC1(C)CC1C(=O)Nc1ccc(Oc2ccc(F)c(F)c2)cn1` (stereo not drawn) [Compound E029] reads 3.98 nM; that for `O=C(CC1CCOCC1)Nc1ccc(Oc2ccc(F)c(F)c2)cn1` [Compound E030], 7940 nM. The same measure for `O=C(Nc1ccc(Oc2ccc(F)c(F)c2)cn1)C1CCCC1` [Compound E031]: 63.1 nM.

With `CC1(C(=O)Nc2ccc(Oc3ccc(F)c(F)c3)cn2)CC1` [Compound E032], the IC50 is 200 nM. The same measure for `CC(C)(C)C(=O)Nc1ccc(Oc2ccc(F)c(F)c2)cn1` [Compound E033]: 79.4 nM; for `O=C(Nc1ccc(Oc2ccc(F)c(F)c2)cn1)C1CC1` [Compound E034]: 200 nM. The result for `CC(C)(F)C(=O)Nc1ccc(Oc2ccc(F)c(F)c2)cn1` [Compound E035] reads 398 nM.

For the compound `CC1(C(=O)Nc2ccc(Oc3ccc(F)c(F)c3)cn2)CCOC1` (stereo not drawn) [Compound E036], the IC50 was 5010 nM. With `O=C(Nc1ccc(Oc2ccc(F)c(F)c2)cn1)C1CCOC1` (stereo not drawn) [Compound E037], the IC50 is 6310 nM.

For the compound `COC(C)(C)C(=O)Nc1ccc(Oc2ccc(F)c(F)c2)cn1` [Compound E038], the IC50 is 1000 nM. The same measure for `CC(C)(CO)C(=O)Nc1ccc(Oc2ccc(F)c(F)c2)cn1` [Compound E039]: 3980 nM; for `COCC(C)(C)C(=O)Nc1ccc(Oc2ccc(F)c(F)c2)cn1` [Compound E040]: 501 nM; for `CC1(C)CC1C(=O)Nc1ccc(Oc2cc(F)cc(C#N)c2)cn1` (stereo not drawn) [Compound E041]: 158 nM. The same measure for `CC1(C)C(C(=O)Nc2ccc(Oc3cc(F)cc(C#N)c3)cn2)C1(C)C` [Compound E042]: 3.16 nM; for `CC1(C)C[C@@H]1C(=O)Nc1ccc(Oc2ccc(F)c(F)c2)cn1` [Compound E043]: 3.98 nM.

Consider `O=C(Nc1ccc(Oc2ccc(F)c(F)c2)cn1)C1CC12CC2` (stereo not drawn) [Compound E044], for which the IC50 was 12.6 nM. The same measure for `O=C(Nc1ccc(Oc2ccc(F)c(F)c2)cn1)[C@H]1C[C@H]1C(F)(F)F` [Compound E045]: 20 nM. The result for `O=C(CC1CC1)Nc1ccc(Oc2ccc(F)c(F)c2)cn1` [Compound E046] reads 398 nM; that for `N#C[C@@H]1C[C@@H]1C(=O)Nc1ccc(Oc2ccc(F)c(F)c2)cn1` [Compound E047], 3160 nM. The result for `C[C@@H]1C[C@@H]1C(=O)Nc1ccc(Oc2ccc(F)c(F)c2)cn1` [Compound E048] reads 15.8 nM. As to `O=C(Nc1ccc(Oc2ccc(F)c(F)c2)cn1)[C@H]1C[C@@H]1C(F)(F)F` [Compound E049], the IC50 is 25.1 nM. The same measure for `N#C[C@H]1C[C@@H]1C(=O)Nc1ccc(Oc2ccc(F)c(F)c2)cn1` [Compound E050]: 398 nM; for `CC(C)C(=O)Nc1ccc(Oc2cncc(F)c2)cn1` [Compound E051]: 3980 nM. In the case of `CC1(C)CC1C(=O)Nc1ccc(Oc2cncc(F)c2)cn1` (stereo not drawn) [Compound E052], the IC50 was 501 nM. The result for `Cc1nc(NC(=O)C2CC2(C)C)ccc1Oc1ccc(F)c(F)c1` (stereo not drawn) [Compound E054] reads 158 nM; that for `O=C(Nc1ccc(Oc2ccc(F)c(F)c2)cn1)[C@@H]1CCCO1` [Compound E055], 6310 nM; that for `CC1(C)C(C(=O)Nc2ccc(Oc3ccc(F)nc3)cn2)C1(C)C` [Compound E056], 5.01 nM. The result for `CC1(C)CC1C(=O)Nc1ccc(Oc2ccc(C#N)cc2)cn1` (stereo not drawn) [Compound E057] reads 1260 nM; that for `CC1(C)C(C(=O)Nc2ccc(Oc3ccc(C#N)cc3)cn2)C1(C)C` [Compound E058], 31.6 nM; that for `CC1(C)CC(C(=O)Nc2ccc(Oc3ccc(F)c(F)c3)cn2)C1` [Compound E059], 200 nM. For the compound `CC1(C)C(C(=O)Nc2ccc(Oc3ccnc(F)c3)cn2)C1(C)C` [Compound E060], the IC50 was 3.16 nM. The result for `CC1(C)C(C(=O)Nc2ccc(Oc3ccc(C#N)cc3F)cn2)C1(C)C` [Compound E061] reads 20 nM; that for `CC1(C)CCC1C(=O)Nc1ccc(Oc2ccc(F)c(F)c2)cn1` (stereo not drawn) [Compound E062], 10 nM; that for `CC1(C)C(C(=O)Nc2ccc(Oc3ccc(C#N)nc3)cn2)C1(C)C` [Compound E063], 1260 nM. For `CC1(C)C(C(=O)Nc2ccc(Oc3ccnc(C#N)c3)cn2)C1(C)C` [Compound E065], the IC50 is 355 nM.

For `CC1(C)C(C(=O)Nc2ccc(Oc3cccnc3)cn2)C1(C)C` [Compound E066], the IC50 was 30.9 nM. Regarding `CC1(C)OCCC1C(=O)Nc1ccc(Oc2ccc(F)c(F)c2)cn1` (stereo not drawn) [Compound E068], the IC50 is 263 nM. The result for `CC(C)(C#N)CC(=O)Nc1ccc(Oc2ccc(F)c(F)c2)cn1` [Compound E069] reads 1910 nM. The same measure for `CC1(C)C(C(=O)Nc2ccc(N3CCC(O)C3)cn2)C1(C)C` (stereo not drawn) [Compound E070]: 1050 nM; for `COCCOc1ccc(NC(=O)C2C(C)(C)C2(C)C)nc1` [Compound E071]: 1100 nM.
